Patent publication US11214563B2 (JANSSEN PHARMACEUTICA NV, priority 2019, dated 2022)

Legend:
[1] = target: human GluN1/GluN2B NMDA receptors (Homo sapiens (Human), UniProt Q05586+Q13224); experiment: Cell-based calcium flux (FLIPR) assay on cloned human NR1/NR2B ion channels expressed in mammalian cells; conditions: standard assay, glutamate ~EC40, 10 μM glycine
Description: (§1) Effects of Test Articles on Cloned Human NR1/NR2B Ion Channels Expressed in Mammalian Cells
(§2) NMDA receptors are ion channels that are highly permeable to Ca^2+ ions, rendering it possible to monitor NMDA receptor function using cell-based calcium flux assay. In this assay, co-agonists glutamate and glycine are added to cells heterologously expressing human GluN1/GluN2B NMDA receptors to initiate cellular Ca^2+ influx. The time course of the changes in intracellular calcium is measured using a fluorescent dye and a FLIPR (Fluorometric Imaging Plate Reader) device.
(§3) Twenty four hours before measurements, the expression of the NMDA receptors in the stable cell line is induced with Tet-On inducible system in the presence of a non-selective NMDA receptor blocker. On the day of the experiment, cell culture media is carefully washed and the cells are loaded with Calcium 5 Dye Kit (Molecular Devices) in dye loading buffer containing 137 mM NaCl, 4 mM KCl, 2 mM CaCl2), 0.5 mM MgCl2(standard assay) or 1.5 mM MgCl2 (HTS assay), 10 mM HEPES and 5 mM D-glucose; pH 7.4. After 1 h incubation at the room temperature, the dye is washed away with the assay buffer (137 mM NaCl (standard assay) or 150 mM (HTS assay), 4 mM KCl (standard assay) or 3 mM (HTS assay), 2 mM CaCl2), 0.01 mM EDTA, 10 mM HEPES and 5 mM D-glucose; pH 7.4) In the FLIPR TETRA reader, various concentrations of the test compounds are added to the cells for 5 min while fluorescence is monitored to detect potential agonist activity. Next, co-agonists, glutamate and glycine are added for another 5 minutes. The concentration of glutamate corresponding to ˜EC40 (standard assay) or EC40 (HTS assay) is used to maximize the assay's signal window and ability to detect NMDA receptor antagonists and negative allosteric modulators. A saturating concentration (10 μM) of glycine is also present in the assay. A non-selective NMDA receptor antagonist, (+)MK-801 is used as a positive control for antagonist activity. The fluorescent signal in the presence of test compounds is quantified and normalized to the signal defined by the appropriate control wells.

[2] = target: human GluN1/GluN2B NMDA receptors (Homo sapiens (Human), UniProt Q13224); experiment: as above; conditions: standard assay, glutamate ~EC40, 10 μM glycine
Description: as §1, §2, §3

Chain of human GluN1/GluN2B NMDA receptors (Homo sapiens (Human), UniProt Q05586+Q13224) (Q13224 27-1484, other chains not shown): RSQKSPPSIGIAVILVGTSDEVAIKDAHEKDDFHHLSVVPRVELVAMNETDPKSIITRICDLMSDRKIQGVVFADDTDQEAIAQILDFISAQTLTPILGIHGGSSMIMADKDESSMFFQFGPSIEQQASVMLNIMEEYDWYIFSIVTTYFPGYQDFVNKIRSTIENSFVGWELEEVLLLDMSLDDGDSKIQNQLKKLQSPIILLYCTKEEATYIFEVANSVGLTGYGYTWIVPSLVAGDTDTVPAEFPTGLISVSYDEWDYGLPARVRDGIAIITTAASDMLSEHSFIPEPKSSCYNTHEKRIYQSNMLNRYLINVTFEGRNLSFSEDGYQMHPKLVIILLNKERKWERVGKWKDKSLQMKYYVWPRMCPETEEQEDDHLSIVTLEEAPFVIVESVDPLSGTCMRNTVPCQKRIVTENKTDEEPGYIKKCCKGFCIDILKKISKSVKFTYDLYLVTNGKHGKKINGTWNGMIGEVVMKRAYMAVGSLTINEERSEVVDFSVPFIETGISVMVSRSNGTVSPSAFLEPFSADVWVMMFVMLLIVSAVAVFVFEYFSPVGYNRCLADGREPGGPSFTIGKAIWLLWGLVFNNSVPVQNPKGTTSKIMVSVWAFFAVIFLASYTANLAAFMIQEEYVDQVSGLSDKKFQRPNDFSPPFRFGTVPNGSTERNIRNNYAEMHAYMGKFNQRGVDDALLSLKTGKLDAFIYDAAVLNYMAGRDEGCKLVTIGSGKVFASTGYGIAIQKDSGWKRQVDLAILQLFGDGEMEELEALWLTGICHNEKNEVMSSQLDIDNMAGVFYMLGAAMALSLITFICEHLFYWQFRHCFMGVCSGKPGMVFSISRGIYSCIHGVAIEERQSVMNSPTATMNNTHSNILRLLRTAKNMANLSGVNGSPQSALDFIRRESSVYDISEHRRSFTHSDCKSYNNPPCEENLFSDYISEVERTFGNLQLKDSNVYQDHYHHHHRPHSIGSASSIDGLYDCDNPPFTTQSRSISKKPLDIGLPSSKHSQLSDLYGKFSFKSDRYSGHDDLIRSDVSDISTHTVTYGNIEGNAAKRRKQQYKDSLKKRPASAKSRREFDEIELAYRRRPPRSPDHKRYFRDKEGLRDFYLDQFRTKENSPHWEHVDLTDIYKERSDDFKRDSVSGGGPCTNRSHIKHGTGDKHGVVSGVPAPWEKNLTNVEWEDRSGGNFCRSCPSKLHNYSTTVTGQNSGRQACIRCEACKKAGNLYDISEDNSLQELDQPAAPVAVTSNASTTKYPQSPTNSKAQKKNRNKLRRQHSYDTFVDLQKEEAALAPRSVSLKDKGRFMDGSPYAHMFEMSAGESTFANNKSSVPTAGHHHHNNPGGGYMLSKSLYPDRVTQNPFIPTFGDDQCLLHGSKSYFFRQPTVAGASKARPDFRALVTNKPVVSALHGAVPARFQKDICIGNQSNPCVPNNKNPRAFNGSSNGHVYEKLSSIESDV
Chain of human GluN1/GluN2B NMDA receptors (Homo sapiens (Human), UniProt Q13224) (Q13224 27-1484, other chains not shown): as above

Row | IC50 [1] | IC50 [2] | SMILES
1 | 22 nM |  | CCC(=O)Cn1ncc2ncc(-c3ccc(F)c(C(F)F)c3)nc21 [Example 1, 1-[6-[3-(Difluoromethyl)-4-fluoro-phenyl]pyrazolo[3,4-b]pyrazin-1-yl]butan-2-one]
2 | 81 nM |  | O=C(Cn1ncc2ncc(-c3ccc(Cl)c(OC(F)F)c3)nc21)C1CC1 [Example 2, 2-[6-[4-Chloro-3-(difluoromethoxy)phenyl]pyrazolo[3,4-b]pyrazin-1-yl]-1-cyclopropyl-ethanone]
3 | 581 nM |  | CN(C)C(=O)Cn1ncc2ncc(-c3ccc(C(F)(F)F)s3)nc21 [Example 3, N,N-Dimethyl-2-[6-[5-(trifluoromethyl)-2-thienyl]pyrazolo[3,4-b]pyrazin-1-yl]acetamide]
4 | 410 nM |  | Cc1cccc(-c2cnc3cnn(CC(=O)N(C)C)c3n2)c1 [Example 4, N,N-Dimethyl-2-[6-(m-tolyl)pyrazolo[3,4-b]pyrazin-1-yl]acetamide]
5 | 827 nM |  | CN(C)C(=O)Cn1ncc2ncc(-c3ccc(Cl)c(F)c3)nc21 [Example 5, 2-[6-(4-Chloro-3-fluoro-phenyl)pyrazolo[3,4-b]pyrazin-1-yl]-N,N-dimethyl-acetamide]
6 |  | 584 nM | COc1ccc(-c2cnc3cnn(CC(=O)N(C)C)c3n2)cc1Cl [Example 9, 2-[6-(3-Chloro-4-methoxy-phenyl)pyrazolo[3,4-b]pyrazin-1-yl]-N,N-dimethyl-acetamide]
7 |  | 146 nM | CN(C)C(=O)Cn1ncc2ncc(-c3ccc(F)c(C(C)(F)F)c3)nc21 [Example 13, 2-[6-[3-(1,1-Difluoroethyl)-4-fluoro-phenyl]pyrazolo[3,4-b]pyrazin-1-yl]-N,N-dimethyl-acetamide]
8 |  | 859 nM | CN(C)C(=O)Cn1ncc2ncc(-c3ccc(OC(F)F)c(F)c3)nc21 [Example 17, 2-[6-[4-(Difluoromethoxy)-3-fluoro-phenyl]pyrazolo[3,4-b]pyrazin-1-yl]-N,N-dimethyl-acetamide]
9 |  | 34 nM | Cc1c(F)ccc(-c2cnc3cnn(CC(=O)N(C)C)c3n2)c1F [Example 21, 2-[6-(2,4-Difluoro-3-methyl-phenyl)pyrazolo[3,4-b]pyrazin-1-yl]-N,N-dimethyl-acetamide]
10 |  | 69 nM | O=C(Cn1ncc2ncc(-c3ccc(Cl)c(OC(F)F)c3)nc21)N1CCC1 [Example 29, 1-(Azetidin-1-yl)-2-[6-[4-chloro-3-(difluoromethoxy)phenyl]pyrazolo[3,4-b]pyrazin-1-yl]ethanone]
11 |  | 196 nM | CC1CN(C(=O)Cn2nc(F)c3ncc(-c4ccc(F)c(C(F)F)c4)nc32)C1 [Example 31, 2-[6-[3-(Difluoromethyl)-4-fluoro-phenyl]-3-fluoro-pyrazolo[3,4-b]pyrazin-1-yl]-1-(3-methylazetidin-1-yl)ethanone]
12 |  | 77 nM | O=C(Cn1nc(F)c2ncc(-c3ccc(F)c(C(F)F)c3)nc21)N1CC(F)C1 [Example 33, 2-[6-[3-(Difluoromethyl)-4-fluoro-phenyl]-3-fluoro-pyrazolo[3,4-b]pyrazin-1-yl]-1-(3-fluoroazetidin-1-yl)ethanone]
13 |  | 212 nM | CC(F)(F)c1cc(-c2cnc3cnn(CC(=O)N4CC(F)C4)c3n2)ccc1Cl [Example 35, 2-[6-[4-Chloro-3-(1,1-difluoroethyl)phenyl]pyrazolo[3,4-b]pyrazin-1-yl]-1-(3-fluoroazetidin-1-yl)ethanone]
14 |  | 251 nM | CC1CN(C(=O)Cn2ncc3ncc(-c4ccc(F)c(OC(F)F)c4)nc32)C1 [Example 36, 2-[6-[3-(Difluoromethoxy)-4-fluoro-phenyl]pyrazolo[3,4-b]pyrazin-1-yl]-1-(3-methylazetidin-1-yl)ethanone]
15 |  | 1060 nM | CC(F)(F)c1cc(-c2cnc3cnn(CC(=O)N4CCOCC4)c3n2)ccc1Cl [Example 38, 2-[6-[4-Chloro-3-(1,1-difluoroethyl)phenyl]pyrazolo[3,4-b]pyrazin-1-yl]-1-morpholino-ethanone]
16 |  | 337 nM | Cc1cc(Cn2ncc3ncc(-c4ccc(F)c(C(F)F)c4)nc32)on1 [Example 41, 5-[[6-[3-(Difluoromethyl)-4-fluoro-phenyl]pyrazolo[3,4-b]pyrazin-1-yl]methyl]-3-methyl-isoxazole]
17 |  | 250 nM | Fc1ccc(-c2cnc3cnn(Cc4cncc(Cl)c4)c3n2)cc1C(F)F [Example 43, 1-[(5-Chloro-3-pyridyl)methyl]-6-[3-(difluoromethyl)-4-fluoro-phenyl]pyrazolo[3,4-b]pyrazine]
18 |  | 165 nM | COc1cncc(Cn2ncc3ncc(-c4ccc(F)c(C(F)F)c4)nc32)c1 [Example 44, 6-[3-(Difluoromethyl)-4-fluoro-phenyl]-1-[(5-methoxy-3-pyridyl)methyl]pyrazolo[3,4-b]pyrazine]
19 |  | 709 nM | N#Cc1cncc(Cn2nc(F)c3ncc(-c4ccc(F)c(C(F)F)c4)nc32)c1 [Example 46, 5-[[6-[3-(Difluoromethyl)-4-fluoro-phenyl]-3-fluoro-pyrazolo[3,4-b]pyrazin-1-yl]methyl]pyridine-3-carbonitrile]
20 |  | 2810 nM | CN(C)C(=O)Cn1ncc2ncc(-c3ccc(Cl)cc3F)nc21 [Example 48, 2-(6-(4-Chloro-2-fluorophenyl)-1H-pyrazolo[3,4-b]pyrazin-1-yl)-N,N-dimethylacetamide]

The remaining lines, values behind:

Row | SMILES | IC50 [1] | IC50 [2]
21 | Cc1ccc(-c2cnc3cnn(CC(=O)N(C)C)c3n2)cc1F [Example 6, 2-[6-(3-Fluoro-4-methyl-phenyl)pyrazolo[3,4-b]pyrazin-1-yl]-N,N-dimethyl-acetamide] | 916 nM | 
22 | Cc1cc(-c2cnc3cnn(CC(=O)N(C)C)c3n2)ccc1Cl [Example 7] |  | 117 nM
23 | Cc1cc(-c2cnc3cnn(CC(=O)N(C)C)c3n2)ccc1Cl [Example 8] |  | 134 nM
24 | CN(C)C(=O)Cn1ncc2ncc(-c3ccc(Cl)c(C(C)(F)F)c3)nc21 [Example 14, 2-[6-[4-Chloro-3-(1,1-difluoroethyl)phenyl]pyrazolo[3,4-b]pyrazin-1-yl]-N,N-dimethyl-acetamide] |  | 149 nM
25 | CN(C)C(=O)Cn1ncc2ncc(-c3ccc(Cl)c(C(F)(F)F)c3)nc21 [Example 15, 2-[6-[4-Chloro-3-(trifluoromethyl)phenyl]pyrazolo[3,4-b]pyrazin-1-yl]-N,N-dimethyl-acetamide] |  | 272 nM
26 | CN(C)C(=O)Cn1ncc2ncc(-c3ccc(OC(F)(F)F)c(Cl)c3)nc21 [Example 19, 2-[6-[3-Chloro-4-(trifluoromethoxy)phenyl]pyrazolo[3,4-b]pyrazin-1-yl]-N,N-dimethyl-acetamide] |  | 1040 nM
27 | CN(C)C(=O)Cn1ncc2ncc(-c3ccc(F)c(F)c3F)nc21 [Example 23, N,N-Dimethyl-2-[6-(2,3,4-trifluorophenyl)pyrazolo[3,4-b]pyrazin-1-yl]acetamide] |  | 962 nM
28 | CC(F)(F)c1cc(-c2cnc3cnn(CC(=O)N4CCC4)c3n2)ccc1Cl [Example 26, 1-(Azetidin-1-yl)-2-[6-[4-chloro-3-(1,1-difluoroethyl)phenyl]pyrazolo[3,4-b]pyrazin-1-yl]ethanone] |  | 140 nM
29 | CC1CN(C(=O)Cn2ncc3ncc(-c4ccc(Cl)c(C(C)(F)F)c4)nc32)C1 [Example 34, 2-[6-[4-Chloro-3-(1,1-difluoroethyl)phenyl]pyrazolo[3,4-b]pyrazin-1-yl]-1-(3-methylazetidin-1-yl)ethanone] |  | 408 nM
30 | Cc1nnc(Cn2ncc3ncc(-c4ccc(F)c(C(F)F)c4)nc32)s1 [Example 39, 2-[[6-[3-(Difluoromethyl)-4-fluoro-phenyl]pyrazolo[3,4-b]pyrazin-1-yl]methyl]-5-methyl-1,3,4-thiadiazole] |  | 162 nM
31 | Fc1cncc(Cn2ncc3ncc(-c4ccc(F)c(C(F)F)c4)nc32)c1 [Example 42, 6-[3-(Difluoromethyl)-4-fluoro-phenyl]-1-[(5-fluoro-3-pyridyl)methyl]pyrazolo[3,4-b]pyrazine] |  | 79 nM
32 | Fc1ccc(-c2cnc3cnn(Cc4cncc(Cl)c4)c3n2)cc1OC(F)F [Example 47, 1-[(5-Chloro-3-pyridyl)methyl]-6-[3-(difluoromethoxy)-4-fluoro-phenyl]pyrazolo[3,4-b]pyrazine] |  | 284 nM
33 | CN(C)C(=O)Cn1ncc2ncc(-c3ccc(OC(F)(F)F)cc3)nc21 [Example 49, N,N-Dimethyl-2-(6-(4-(trifluoromethoxy)phenyl)-1H-pyrazolo[3,4-b]pyrazin-1-yl)acetamide] |  | 2740 nM
34 | CN(C)C(=O)Cn1ncc2ncc(-c3cc(F)ccc3F)nc21 [Example 50, 2-(6-(2,5-Difluorophenyl)-1H-pyrazolo[3,4-b]pyrazin-1-yl)-N,N-dimethylacetamide] |  | > 3000 nM
35 | COc1cncc(Cn2ncc3ncc(-c4ccc(F)c(OC(F)F)c4)nc32)c1 [Example 52, 6-(3-(Difluoromethoxy)-4-fluorophenyl)-1-((5-methoxypyridin-3-yl)methyl)-1H-pyrazolo[3,4-b]pyrazine] |  | 3770 nM
